Data taken from patent US11084829B2, “Ubiquitin-specific-processing protease 7 (USP7) modulators and uses thereof” (RAPT THERAPEUTICS, INC., priority 2018, dated 2021).
pIC50: −log10 of the molar value.

biological target: USP7 (Homo sapiens, UniProt Q93009); test: USP7 inhibitory potency (IC50); type: biochemical
Description: Activity for compounds described herein is provided in Table 2, wherein potency levels are provided as follows: (Potency: USP7 IC50: A<0.01 μM; B=0.01-0.1 μM; C=>0.1 μM.

Sequence of USP7 (Q93009 whole entry): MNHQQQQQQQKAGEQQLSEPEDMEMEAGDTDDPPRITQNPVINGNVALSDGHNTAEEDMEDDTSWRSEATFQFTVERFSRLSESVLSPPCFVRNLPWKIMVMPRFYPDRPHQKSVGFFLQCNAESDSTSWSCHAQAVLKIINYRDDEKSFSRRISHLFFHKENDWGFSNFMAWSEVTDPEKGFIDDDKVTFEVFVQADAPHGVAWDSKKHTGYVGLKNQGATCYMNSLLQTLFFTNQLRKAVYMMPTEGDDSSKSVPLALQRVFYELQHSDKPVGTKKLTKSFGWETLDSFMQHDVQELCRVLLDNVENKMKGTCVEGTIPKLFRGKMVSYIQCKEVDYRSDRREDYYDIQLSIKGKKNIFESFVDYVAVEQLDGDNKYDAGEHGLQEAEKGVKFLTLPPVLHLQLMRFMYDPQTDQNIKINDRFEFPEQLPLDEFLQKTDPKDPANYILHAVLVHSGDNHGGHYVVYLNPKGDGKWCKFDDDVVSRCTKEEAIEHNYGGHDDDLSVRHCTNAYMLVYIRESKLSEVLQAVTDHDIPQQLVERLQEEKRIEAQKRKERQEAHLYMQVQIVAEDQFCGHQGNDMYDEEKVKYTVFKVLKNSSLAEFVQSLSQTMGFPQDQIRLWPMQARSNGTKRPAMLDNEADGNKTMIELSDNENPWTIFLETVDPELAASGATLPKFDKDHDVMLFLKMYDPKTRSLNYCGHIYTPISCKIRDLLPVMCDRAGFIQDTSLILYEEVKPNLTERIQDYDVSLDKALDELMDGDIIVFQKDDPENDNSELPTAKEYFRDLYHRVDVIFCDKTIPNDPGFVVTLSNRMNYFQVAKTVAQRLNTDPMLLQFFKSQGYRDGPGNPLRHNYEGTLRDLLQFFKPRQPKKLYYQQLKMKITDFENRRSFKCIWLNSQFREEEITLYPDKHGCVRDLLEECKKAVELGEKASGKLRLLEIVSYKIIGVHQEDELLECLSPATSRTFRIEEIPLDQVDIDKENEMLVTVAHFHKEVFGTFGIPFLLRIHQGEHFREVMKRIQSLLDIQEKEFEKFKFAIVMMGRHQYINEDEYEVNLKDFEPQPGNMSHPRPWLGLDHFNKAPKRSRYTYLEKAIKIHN

| Compound | pIC50 |
| --- | --- |
| CCN1CCN(Cc2c(C)cc(Cl)cc2-c2ncnc3cc(CN4C(=O)C5C(C4=O)C5(C)C)sc23)[C@@H](C)C1 (stereo partly drawn) [Example 54, 3-((4-(5-chloro-2-(((S)-4-ethyl-2-methylpiperazin-1-yl)methyl)-3-methylphenyl)thieno[3,2-d]pyrimidin-6-yl)methyl)-6,6-dimethyl-3-azabicyclo[3.1.0]hexane-2,4-dione] | > 8.00 |
| CC1(C)C2C(=O)N(Cc3cc4nccc(-c5cc(Cl)cc(Cl)c5CC5CNCCO5)c4s3)C(=O)C21 (centres unmarked) [Example 140, 3-((7-(3,5-dichloro-2-(morpholin-2-ylmethyl)phenyl)thieno[3,2-b]pyridin-2-yl)methyl)-6,6-dimethyl-3-azabicyclo[3.1.0]hexane-2,4-dione] | > 8.00 |
| Cc1cc(Cl)cc(-c2ncnc3cc(CN4C(=O)CCN(CC(F)F)C4=O)sc23)c1CN1[C@@H](C)CNC[C@@H]1C [Example 259, 3-((4-(5-chloro-2-(((2S,6S)-2,6-dimethylpiperazin-1-yl)methyl)-3-methylphenyl)thieno[3,2-d]pyrimidin-6-yl)methyl)-1-(2,2-difluoroethyl)dihydropyrimidine-2,4(1H,3H)-dione] | > 8.00 |
| Cc1cc(Cl)cc(-c2ccnc3cc(CN4C(=O)C5CC5C4=O)sc23)c1CC1CNCCCO1 (centres unmarked) [Example 118, 3-((7-(2-((1,4-oxazepan-2-yl)methyl)-5-chloro-3-methylphenyl)thieno[3,2-b]pyridin-2-yl)methyl)-3-azabicyclo[3.1.0]hexane-2,4-dione] | > 8.00 |
| Cc1cc(Cl)cc(-c2ncnc3cc(CN4C(=O)CN(CCO)C4=O)sc23)c1C[C@@H]1CNCC(C)(C)O1 [Example 276, (R)-3-((4-(5-chloro-2-((6,6-dimethylmorpholin-2-yl)methyl)-3-methylphenyl)thieno[3,2-d]pyrimidin-6-yl)methyl)-1-(2-hydroxyethyl)imidazolidine-2,4-dione] | > 8.00 |
| Cc1cc(Cl)cc(-c2ncnc3cc(CN4C(=O)CCN(CCCC(=O)O)C4=O)sc23)c1C[C@@H]1CNCCO1 [Example 265, (R)-4-(3-((4-(5-chloro-3-methyl-2-(morpholin-2-ylmethyl)phenyl)thieno[3,2-d]pyrimidin-6-yl)methyl)-2,4-dioxotetrahydropyrimidin-1(2H)-yl)butanoic acid] | 7.00 to 8.00 |
| Cc1cc(Cl)cc(-c2ccnc3cc(CN4C(=O)C5CC5C4=O)sc23)c1CN1[C@@H](C)CN(C(C)C)C[C@@H]1C (stereo partly drawn) [Example 32, 3-((7-(5-chloro-2-(((2S,6S)-4-isopropyl-2,6-dimethylpiperazin-1-yl)methyl)-3-methylphenyl)thieno[3,2-b]pyridin-2-yl)methyl)-3-azabicyclo[3.1.0]hexane-2,4-dione] | > 8.00 |
| Cc1cc(Cl)cc(-c2ncnc3cc(CN4CCOCC4=O)sc23)c1CC1CNCCO1 (centres unmarked) [Example 172, 4-((4-(5-chloro-3-methyl-2-(morpholin-2-ylmethyl)phenyl)thieno[3,2-d]pyrimidin-6-yl)methyl)morpholin-3-one] | < 7.00 |
| Cc1cc(Cl)cc(-c2ncnc3cc(CN4C(=O)CSC4=O)sc23)c1CN1C[C@@H](C)NC[C@@H]1C [Example 79, 3-((4-(5-chloro-2-(((2S,5R)-2,5-dimethylpiperazin-1-yl)methyl)-3-methylphenyl)thieno[3,2-d]pyrimidin-6-yl)methyl)thiazolidine-2,4-dione] | > 8.00 |
| COC(=O)[C@H]1CCC(=O)N1Cc1cc2ncnc(-c3cc(Cl)cc(C)c3C[C@@H]3CNCC(C)(C)O3)c2s1 [Example 224, methyl (R)-1-((4-(5-chloro-2-(((R)-6,6-dimethylmorpholin-2-yl)methyl)-3-methylphenyl)thieno[3,2-d]pyrimidin-6-yl)methyl)-5-oxopyrrolidine-2-carboxylate] | > 8.00 |
| Cn1ccc(=O)n(Cc2cc3nccc(-c4cc(Cl)cc(Cl)c4CC4CNCCO4)c3s2)c1=O (centres unmarked) [Example 142, 3-((7-(3,5-dichloro-2-(morpholin-2-ylmethyl)phenyl)thieno[3,2-b]pyridin-2-yl)methyl)-1-methylpyrimidine-2,4(1H,3H)-dione] | > 8.00 |
| Cc1cc(Cl)cc(-c2ncnc3cc(CN4C(=O)C5C(C4=O)C5(C)C)sc23)c1CN1[C@@H](C)CNC[C@@H]1C (stereo partly drawn) [Example 56, 3-((4-(5-chloro-2-(((2S,6S)-2,6-dimethylpiperazin-1-yl)methyl)-3-methylphenyl)thieno[3,2-d]pyrimidin-6-yl)methyl)-6,6-dimethyl-3-azabicyclo[3.1.0]hexane-2,4-dione] | 7.00 to 8.00 |
| CC[C@H]1CNCCN1Cc1c(C)cc(Cl)cc1-c1ncnc2cc(CN3C(=O)C4C(C3=O)C4(C)C)sc12 (stereo partly drawn) [Example 52, 3-((4-(5-chloro-2-(((S)-2-ethylpiperazin-1-yl)methyl)-3-methylphenyl)thieno[3,2-d]pyrimidin-6-yl)methyl)-6,6-dimethyl-3-azabicyclo[3.1.0]hexane-2,4-dione] | 7.00 to 8.00 |
| Cc1cc(Cl)cc(-c2ncnc3cc(CN4C(=O)OC[C@@H]4CF)sc23)c1C[C@@H]1CNCC(C)(C)O1 [Example 263, (R)-3-((4-(5-chloro-2-(((R)-6,6-dimethylmorpholin-2-yl)methyl)-3-methylphenyl)thieno[3,2-d]pyrimidin-6-yl)methyl)-4-(fluoromethyl)oxazolidin-2-one] | > 8.00 |
| Cc1cc(Cl)cc(-c2ccnc3cc(CN4C(=O)C5CC5C4=O)sc23)c1C[C@H]1OCCN[C@@H]1C (stereo partly drawn) [Example 104, 3-((7-(5-chloro-3-methyl-2-(((2R,3R)-3-methylmorpholin-2-yl)methyl)phenyl)thieno[3,2-b]pyridin-2-yl)methyl)-3-azabicyclo[3.1.0]hexane-2,4-dione] | > 8.00 |
| Cc1cc(Cl)cc(-c2ccnc3cc(CN4C(=O)CCC4=O)sc23)c1CN1CCNC[C@H]1C [Example 7, (R)-1-((7-(5-chloro-3-methyl-2-((2-methylpiperazin-1-yl)methyl)phenyl)thieno[3,2-b]pyridin-2-yl)methyl)pyrrolidine-2,5-dione] | 7.00 to 8.00 |
| Cc1cc(Cl)cc(-c2ncnc3cc(CN4C(=O)COCC4=O)sc23)c1CC1CNCCO1 (centres unmarked) [Example 169, 4-((4-(5-chloro-3-methyl-2-(morpholin-2-ylmethyl)phenyl)thieno[3,2-d]pyrimidin-6-yl)methyl)morpholine-3,5-dione] | > 8.00 |
| Cc1ccc(CN2CCNC[C@@H]2C)c(-c2ncnc3cc(CN4C(=O)C5CC5C4=O)sc23)c1 (stereo partly drawn) [Example 62, 3-((4-(5-methyl-2-(((S)-2-methylpiperazin-1-yl)methyl)phenyl)thieno[3,2-d]pyrimidin-6-yl)methyl)-3-azabicyclo[3.1.0]hexane-2,4-dione] | < 7.00 |
| Cc1cc(Cl)cc(-c2ccnc3cc(CN4C(=O)C5CC5C4=O)sc23)c1CN1C[C@H](C)NC[C@H]1C (stereo partly drawn) [Example 37, 3-((7-(5-chloro-2-(((2R,5 S)-2,5-dimethylpiperazin-1-yl)methyl)-3-methylphenyl)thieno[3,2-b]pyridin-2-yl)methyl)-3-azabicyclo[3.1.0]hexane-2,4-dione] | > 8.00 |
| CC1(C)CNCC(Cc2c(-c3ncnc4cc(CN5C(=O)C6CC6C5=O)sc34)cc(Cl)cc2C(F)F)O1 (centres unmarked) [Example 250, 3-((4-(5-chloro-3-(difluoromethyl)-2-((6,6-dimethylmorpholin-2-yl)methyl)phenyl)thieno[3,2-d]pyrimidin-6-yl)methyl)-3-azabicyclo[3.1.0]hexane-2,4-dione] | > 8.00 |
